Results as given in patent US9751854B2 (Millennium Pharmaceuticals, Inc., priority 2014, dated 2017).

Each compound was assayed against human VPS34 (Homo sapiens (Human), UniProt Q8NEB9) (assay: Human VPS34 enzyme assay (Adapta TR-FRET ADP detection)). Details: IC50 range class.
Assay type: biochemical

human VPS34, sequence (Q8NEB9 whole entry): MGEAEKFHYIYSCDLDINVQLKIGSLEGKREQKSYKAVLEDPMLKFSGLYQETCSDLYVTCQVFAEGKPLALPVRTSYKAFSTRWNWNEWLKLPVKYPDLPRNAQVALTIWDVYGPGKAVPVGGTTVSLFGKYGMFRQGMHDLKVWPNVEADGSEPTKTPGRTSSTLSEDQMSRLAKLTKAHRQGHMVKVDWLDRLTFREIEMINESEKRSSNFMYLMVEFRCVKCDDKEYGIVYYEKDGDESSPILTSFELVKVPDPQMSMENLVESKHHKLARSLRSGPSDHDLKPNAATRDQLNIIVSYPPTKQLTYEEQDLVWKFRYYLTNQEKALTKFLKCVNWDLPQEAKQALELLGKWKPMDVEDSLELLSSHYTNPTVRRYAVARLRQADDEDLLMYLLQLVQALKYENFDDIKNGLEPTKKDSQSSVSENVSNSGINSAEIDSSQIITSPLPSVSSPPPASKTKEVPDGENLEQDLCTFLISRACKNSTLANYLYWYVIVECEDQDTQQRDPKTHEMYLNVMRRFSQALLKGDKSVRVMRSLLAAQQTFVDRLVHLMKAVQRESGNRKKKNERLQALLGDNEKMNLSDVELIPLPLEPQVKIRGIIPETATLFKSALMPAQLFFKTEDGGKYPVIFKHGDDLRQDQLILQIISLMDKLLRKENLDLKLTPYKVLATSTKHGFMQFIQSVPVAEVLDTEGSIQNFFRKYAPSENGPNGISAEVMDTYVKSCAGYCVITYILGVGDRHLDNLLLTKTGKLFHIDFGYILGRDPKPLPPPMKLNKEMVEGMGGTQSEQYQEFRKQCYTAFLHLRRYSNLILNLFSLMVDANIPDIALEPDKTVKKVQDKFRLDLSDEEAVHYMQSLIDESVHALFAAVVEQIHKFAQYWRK

Structure (SMILES) | IC50 [nM]
Cc1nccc(Nc2cc(-c3cnc(Cl)c(NS(=O)(=O)N(C)C)c3C)ccn2)n1 [Compound I-381, N′-{6-chloro-4-methyl-2′-[(2-methylpyrimidin-4-yl)amino]-3,4′-bipyridin-5-yl}-N,N-dimethylsulfuric diamide] | < 10
Cc1nc(Nc2cc(-c3cnc(C)c(NS(=O)(=O)c4ccc(F)cc4F)c3)ccn2)nc(C2CC2)n1 [Compound I-382, N-{2′-[(4-cyclopropyl-6-methyl-1,3,5-triazin-2-yl)amino]-6-methyl-3,4′-bipyridin-5-yl}-2,4-difluorobenzenesulfonamide] | < 10
CCOC(=O)Nc1cc(-c2cnc(Cl)c(NS(=O)(=O)c3ccc(F)cc3F)c2C)ccn1 [Compound I-383, ethyl (6-chloro-5-{[(2,4-difluorophenyl)sulfonyl]amino}-4-methyl-3,4′-bipyridin-2′-yl)carbamate] | 10 to 50
CC(=O)Nc1cc(-c2cncc(N(CCO)S(=O)(=O)c3ccc(F)cc3F)c2)ccn1 [Compound I-384, N-(5-{[(2,4-difluorophenyl)sulfonyl](2-hydroxyethyl)amino}-3,4′-bipyridin-2′-yl)acetamide] | > 100
CC(=O)Nc1cc(-c2cnc(C)c(N3CCN(C)S3(=O)=O)c2)ccn1 [Compound I-386, N-[6-methyl-5-(5-methyl-1,1-dioxido-1,2,5-thiadiazolidin-2-yl)-3,4′-bipyridin-2′-yl]acetamide] | 10 to 50
CC(=O)Nc1cc(-c2cnc(C)c(N3CCCNS3(=O)=O)c2)ccn1 [Compound I-387, N-[5-(1,1-dioxido-1,2,6-thiadiazinan-2-yl)-6-methyl-3,4′-bipyridin-2′-yl]acetamide] | 10 to 50
Cc1ncc(-c2ccnc(NC(=O)C3CC3)c2)cc1C(=O)N(C)C12CC(C1)C2 [Compound I-388, N-(bicyclo[1.1.1]pent-1-yl)-2′-[(cyclopropylcarbonyl)amino]-N,6-dimethyl-3,4′-bipyridine-5-carboxamide] | 50 to 100
CCOC(=O)Nc1cc(-c2cnc(C)c(NS(=O)(=O)c3ccc(F)cc3F)c2)ccn1 [Compound I-389, ethyl (5-{[(2,4-difluorophenyl)sulfonyl]amino}-6-methyl-3,4′-bipyridin-2′-yl)carbamate] | < 10
Cc1ccc(Oc2cc(-c3ccnc(Nc4ccnc(C)n4)c3)cnc2C)nc1 [Compound I-390, 6-methyl-5-[(5-methylpyridin-2-yl)oxy]-N-(2-methylpyrimidin-4-yl)-3,4′-bipyridin-2′-amine] | 10 to 50
CC(=O)Nc1cc(-c2cncc(S(=O)(=O)N3CC(F)(F)C3)c2)ccn1 [Compound I-391, N-{5-[(3,3-difluoroazetidin-1-yl)sulfonyl]-3,4′-bipyridin-2′-yl}acetamide] | 10 to 50
CC(=O)Nc1cc(-c2cnc(C)c(Nc3nc4ccccc4o3)c2)ccn1 [Compound I-392, N-[5-(1,3-benzoxazol-2-ylamino)-6-methyl-3,4′-bipyridin-2′-yl]acetamide] | > 100
CC(=O)Nc1cc(-c2cncc(NS(=O)(=O)c3ccc(F)cc3F)c2Cl)ccn1 [Compound I-394, N-(4-chloro-5-{[(2,4-difluorophenyl)sulfonyl]amino}-3,4′-bipyridin-2′-yl)acetamide] | 10 to 50
CC(=O)Nc1cc(-c2cnc(C)c(S(N)(=O)=O)c2)ccn1 [Compound I-395, N-(6-methyl-5-sulfamoyl-3,4′-bipyridin-2′-yl)acetamide] | 10 to 50
CC(=O)Nc1cc(-c2cncc(S(=O)(=O)NC3CCC3)c2)ccn1 [Compound I-396, N-[5-(cyclobutylsulfamoyl)-3,4′-bipyridin-2′-yl]acetamide] | 10 to 50
CC(=O)Nc1cc(-c2cncc(N(C)C(=O)c3ccc(F)cc3F)c2)ccn1 [Compound I-397, N-(2′-acetamido-3,4′-bipyridin-5-yl)-2,4-difluoro-N-methylbenzamide] | 50 to 100
CC(=O)Nc1cc(-c2cnc(C)c(N(C)C(=O)c3ccc(F)cc3F)c2)ccn1 [Compound I-398, N-(2′-acetamido-6-methyl-3,4′-bipyridin-5-yl)-2,4-difluoro-N-methylbenzamide] | > 100
CC(=O)Nc1cc(-c2cnc(Cl)c(NS(=O)(=O)c3ccc(Cl)cc3F)c2C)ccn1 [Compound I-399, N-(6-chloro-5-{[(4-chloro-2-fluorophenyl)sulfonyl]amino}-4-methyl-3,4′-bipyridin-2′-yl)acetamide] | 10 to 50
CC(=O)Nc1cc(-c2cnc(Cl)c(NS(=O)(=O)c3cc(Cl)ccc3Cl)c2C)ccn1 [Compound I-401, N-(6-chloro-5-{[(2,5-dichlorophenyl)sulfonyl]amino}-4-methyl-3,4′-bipyridin-2′-yl)acetamide] | < 10
Cc1nccc(Nc2cc(-c3cnc(Cl)c(C(=O)O)c3C)ccn2)n1 [Compound I-402, 6-chloro-4-methyl-2′-[(2-methylpyrimidin-4-yl)amino]-3,4′-bipyridine-5-carboxylic acid] | 10 to 50
CC(=O)Nc1cc(-c2cc(NS(=O)(=O)c3ccc(F)cc3F)c3ccnn3c2)ccn1 [Compound I-404, N-[4-(4-{[(2,4-difluorophenyl)sulfonyl]amino}pyrazolo[1,5-a]pyridin-6-yl)pyridin-2-yl]acetamide] | 10 to 50

Structure (SMILES) | IC50 [nM]
CC(=O)Nc1cc(-c2cncc(N3CCOc4cc(F)ccc4S3(=O)=O)c2)ccn1 [Compound I-405] | 10 to 50
Cc1nccc(Nc2cc(-c3cnc4c(c3)C(=O)NCC4)ccn2)n1 [Compound I-406, 3-[2-[(2-methylpyrimidin-4-yl)amino]-4-pyridyl]-7,8-dihydro-6H-1,6-naphthyridin-5-one] | > 100
Cc1nccc(Nc2cc(-c3cc(NC(=O)N4CC(F)(F)C4)c4ccnn4c3)ccn2)n1 [Compound I-407, 3,3-difluoro-N-(6-{2-[(2-methylpyrimidin-4-yl)amino]pyridin-4-yl}pyrazolo[1,5-a]pyridin-4-yl)azetidine-1-carboxamide] | 10 to 50
Cc1nccc(Nc2cc(-c3cncc(C(=O)N4CC(F)(F)C4)c3)ccn2)n1 [Compound I-408, (3,3-difluoroazetidin-1-yl){2′-[(2-methylpyrimidin-4-yl)amino]-3,4′-bipyridin-5-yl}methanone] | 10 to 50
CC(=O)Nc1cc(-c2cnc(N)c(C(=O)NC(=N)N)c2)ccn1 [Compound I-409, 2′-acetamido-6-amino-N-carbamimidoyl-3,4′-bipyridine-5-carboxamide] | > 100
CC(=O)Nc1cc(-c2cnc(Cl)c(S(=O)(=O)NC(C)(C)C)c2C)ccn1 [Compound I-410, N-[5-(tert-butylsulfamoyl)-6-chloro-4-methyl-3,4′-bipyridin-2′-yl]acetamide] | 10 to 50
CC(=O)Nc1cc(-c2cnc(C#N)c(NS(=O)(=O)c3ccc(F)cc3F)c2)ccn1 [Compound I-411, N-(6-cyano-5-{[(2,4-difluorophenyl)sulfonyl]amino}-3,4′-bipyridin-2′-yl)acetamide] | < 10
CC(=O)Nc1cc(-c2cnc(C)c(NS(=O)(=O)CC(F)F)c2)ccn1 [Compound I-412, N-(5-{[(2,2-difluoroethyl)sulfonyl]amino}-6-methyl-3,4′-bipyridin-2′-yl)acetamide] | 10 to 50
O=C(c1cncc(-c2ccnc(Nc3ccnc(C4CC4)n3)c2)c1)N1CC(F)(F)C1 [Compound I-413, (2′-[(2-cyclopropylpyrimidin-4-yl)amino]-3,4′-bipyridin-5-yl)(3,3-difluoroazetidin-1-yl)methanone] | 10 to 50
CC(=O)Nc1cc(-c2cnc(C)c(NS(=O)(=O)c3ccc(F)cc3F)c2)cc(C)n1 [Compound I-414, N-(5-{[(2,4-difluorophenyl)sulfonyl]amino}-6,6′-dimethyl-3,4′-bipyridin-2′-yl)acetamide] | 50 to 100
Cc1nccc(Nc2cc(-c3cnc(C)c(C(=O)N4CC5(COC5)C4)c3)ccn2)n1 [Compound I-415, {6-methyl-2′-[(2-methylpyrimidin-4-yl)amino]-3,4′-bipyridin-5-yl}(2-oxa-6-azaspiro[3,3]hept-6-yl)methanone] | 10 to 50
CC(=O)Nc1cc(-c2cnc(C)c(N3CC=CS3(=O)=O)c2)ccn1 [Compound I-416, N-[5-(1,1-dioxidoisothiazol-2(3H)-yl)-6-methyl-3,4′-bipyridin-2′-yl]acetamide] | 10 to 50
COC(=O)Nc1cc(-c2cnc(C)c(NS(=O)(=O)c3ccc(Cl)cc3F)c2)ccn1 [Compound I-417, methyl (5-{[(4-chloro-2-fluorophenyl)sulfonyl]amino}-6-methyl-3,4′-bipyridin-2′-yl)carbamate] | < 10
CC(=O)Nc1cc(-c2cnc(C)c(S(=O)(=O)NC34CC(C3)C4)c2)ccn1 [Compound I-418, N-[5-(bicyclo[1.1.1]pent-1-ylsulfamoyl)-6-methyl-3,4′-bipyridin-2′-yl]acetamide] | 10 to 50
CC(=O)Nc1cc(-c2cncc(NC(=O)c3ccc(F)cc3F)c2)ccn1 [Compound I-419, N-(2′-acetamido-3,4′-bipyridin-5-yl)-2,4-difluorobenzamide] | > 100
CC(=O)Nc1cc(-c2cnc3c(c2)S(=O)(=O)N[C@H](c2ccccc2)CO3)ccn1 [Compound I-420, (R)-N-(4-(1,1-dioxido-3-phenyl-3,4-dihydro-2H-pyrido[2,3-b][1,4,5]oxathiazepin-8-yl)pyridin-2-yl)acetamide] | > 100
Cc1nccc(Nc2cc(-c3cncc(C(C)Oc4ccccc4F)c3)ccn2)n1 (stereo not shown) [Compound I-422, 5-[1-(2-fluorophenoxy)ethyl]-N-(2-methylpyrimidin-4-yl)-3,4′-bipyridin-2′-amine] | 10 to 50
COc1ncc(-c2ccnc(NC(C)=O)c2)cc1C(=O)N(C)c1ccc(F)cc1F [Compound I-423, 2′-aceramido-N-(2,4-difluorophenyl)-6-methoxy-N-methyl-3,4′-bipyridine-5-carboxamide] | 10 to 50
Cc1nccc(Nc2cc(-c3cnc(C)c(OCCO)c3)ccn2)n1 [Compound I-424, 2-({6-methyl-2′-[(2-methylpyrimidin-4-yl)amino]-3,4′-bipyridin-5-yl}oxy)ethanol] | 10 to 50
CC(=O)Nc1cc(-c2cnc(Cl)c(N3CCCS3(=O)=O)c2C)ccn1 [Compound I-425, N-[6-chloro-5-(1,1-dioxidoisothiazolidin-2-yl)-4-methyl-3,4′-bipyridin-2′-yl]acetamide] | 10 to 50
